Test results reported in patent publication US9255094B2, “Pyrido[4,3-B]indoles and methods of use” (Medivation Technologies, Inc., priority 2009, dated 2016).

Legend:
[1] = target: T1, human recombinant serotonin (5-Hydroxytryptamine) 5-HT2C receptor (Homo sapiens, UniProt P28335); assay: Serotonin 5-HT2C radioligand binding assay ([3H]Mesulergine); details: compound at 1 μM; 1 nM [3H]Mesulergine; CHO-K1 cells; read-out: Percent Inhibition of ligand binding, Serotonin (1 μM) 5-HT2C
T1 construct: expressed in transfected cells; host or cells: Chinese hamster ovary (CHO-K1) cells
T1 sequence (P28335 33-458): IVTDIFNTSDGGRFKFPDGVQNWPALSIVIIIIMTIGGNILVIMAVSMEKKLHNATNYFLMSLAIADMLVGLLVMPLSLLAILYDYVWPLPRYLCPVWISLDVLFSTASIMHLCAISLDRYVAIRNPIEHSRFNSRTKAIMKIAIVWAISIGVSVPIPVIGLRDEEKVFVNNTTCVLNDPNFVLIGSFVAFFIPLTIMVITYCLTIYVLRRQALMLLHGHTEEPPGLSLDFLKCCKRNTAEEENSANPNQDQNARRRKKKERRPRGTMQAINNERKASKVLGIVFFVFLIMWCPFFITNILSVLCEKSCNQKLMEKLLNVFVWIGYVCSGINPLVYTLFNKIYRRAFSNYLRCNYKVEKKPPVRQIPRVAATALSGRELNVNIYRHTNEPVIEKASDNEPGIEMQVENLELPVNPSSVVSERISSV
Method: Compounds of the invention were incubated with 1 nM [^3H]Mesulergine for 60 min at 25° C. Non-specific binding was estimated in the presence of 1 μM Mianserin. Receptor proteins were filtered and washed, the filters were then counted to determine [^3H]Mesulergine specifically bound. Compounds were screened at 1 μM or lower, using 1% DMSO as vehicle. Biochemical assay results are presented as the percent inhibition of specific binding in Table 4.

[2] = target: human recombinant serotonin (5-Hydroxytryptamine) 5-HT7 receptor (Homo sapiens, UniProt P34969); assay: Serotonin 5-HT7 radioligand binding assay ([3H]LSD); details: compound at 1 μM; 5.5 nM [3H]LSD; CHO cells; read-out: Percent Inhibition of ligand binding, Serotonin (1 μM) 5-HT7
Method: Compounds of invention were incubated with 5.5 nM [^3H] Lysergic acid diethylamide (LSD) for 2 h at 25° C. […] Receptor proteins were filtered and washed, the filters were then counted to determine [^3H]LSD specifically bound. Compounds were screened at 1 μM or lower, using 1% DMSO as vehicle. Biochemical assay results are presented as the percent inhibition of specific binding in Table 4.

[3] = target: T2, human recombinant adrenergic α2B receptor (Homo sapiens, UniProt P18089); assay: Adrenergic α2B radioligand binding assay ([3H]Rauwolscine); details: compound at 1 μM; 2.5 nM [3H]Rauwolscine; CHO-K1 cells; read-out: Percent Inhibition of ligand binding, Adrenergic (1 μM) a2B
T2 construct: expressed in transfected cells; host or cells: Chinese hamster ovary (CHO-K1) cells
T2 sequence (P18089 1-450): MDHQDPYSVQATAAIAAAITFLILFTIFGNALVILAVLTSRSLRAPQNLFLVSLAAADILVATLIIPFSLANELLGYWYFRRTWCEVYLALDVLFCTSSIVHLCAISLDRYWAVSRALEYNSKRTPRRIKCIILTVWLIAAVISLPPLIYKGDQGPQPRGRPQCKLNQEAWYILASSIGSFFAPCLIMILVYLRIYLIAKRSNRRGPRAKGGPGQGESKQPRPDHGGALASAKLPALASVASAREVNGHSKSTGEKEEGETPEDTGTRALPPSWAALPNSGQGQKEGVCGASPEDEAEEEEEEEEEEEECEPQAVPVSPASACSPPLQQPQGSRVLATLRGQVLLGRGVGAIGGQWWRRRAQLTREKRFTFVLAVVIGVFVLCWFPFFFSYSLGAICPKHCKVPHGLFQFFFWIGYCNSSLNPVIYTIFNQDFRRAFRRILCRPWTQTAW
Method: To evaluate in radioligand binding assays the activity of compounds of the invention, human recombinant adrenergic α2B receptor expressed in Chinese hamster ovary (CHO-K1) cells (Uhlen S et al., Eur. J. Pharmacol. 343(1):93, 1998) in a modified Tris-HCl buffer (50 mM Tris-HCl, pH 7.4, 12.5 mM MgCl2, 1 mM EDTA, 0.2% BSA) was used. Compounds of the invention were incubated with 2.5 nM [^3H]Rauwolscine for 60 min at 25° C. Non-specific binding was estimated in the presence of 10 μM Prozosin. Receptor proteins were filtered and washed, the filters were then counted to determine [^3H]Rauwolscine specifically bound.

[4] = target: human recombinant histamine H1 receptor (Homo sapiens, UniProt P35367); assay: Histamine H1 radioligand binding assay ([3H]Pyrilamine); details: compound at 1 μM, receptor expressed in CHO cells
Outline: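 Membranes from CHO cells expressing the receptor, in 50 mM Tris-HCl pH 7.4 with 2 mM MgCl2, 100 mM NaCl and 250 mM sucrose, incubated with 1.2 nM [3H]pyrilamine for 180 min at 25° C; nonspecific binding defined with 1 μM pyrilamine.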

Sequence of human recombinant serotonin (5-Hydroxytryptamine) 5-HT7 receptor (P34969 whole entry): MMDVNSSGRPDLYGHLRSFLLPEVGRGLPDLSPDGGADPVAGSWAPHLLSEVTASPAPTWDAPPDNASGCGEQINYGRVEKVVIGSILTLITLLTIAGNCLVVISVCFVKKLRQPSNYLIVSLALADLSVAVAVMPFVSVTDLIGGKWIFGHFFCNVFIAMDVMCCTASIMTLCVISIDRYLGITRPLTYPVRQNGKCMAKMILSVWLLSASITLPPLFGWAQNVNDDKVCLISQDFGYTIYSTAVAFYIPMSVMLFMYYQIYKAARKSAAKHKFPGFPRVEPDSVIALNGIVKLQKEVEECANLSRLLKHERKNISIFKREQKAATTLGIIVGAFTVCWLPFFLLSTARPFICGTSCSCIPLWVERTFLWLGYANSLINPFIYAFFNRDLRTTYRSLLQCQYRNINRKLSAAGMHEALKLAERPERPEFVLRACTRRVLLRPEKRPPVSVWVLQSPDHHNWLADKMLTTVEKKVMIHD
Sequence of human recombinant histamine H1 receptor (P35367 whole entry): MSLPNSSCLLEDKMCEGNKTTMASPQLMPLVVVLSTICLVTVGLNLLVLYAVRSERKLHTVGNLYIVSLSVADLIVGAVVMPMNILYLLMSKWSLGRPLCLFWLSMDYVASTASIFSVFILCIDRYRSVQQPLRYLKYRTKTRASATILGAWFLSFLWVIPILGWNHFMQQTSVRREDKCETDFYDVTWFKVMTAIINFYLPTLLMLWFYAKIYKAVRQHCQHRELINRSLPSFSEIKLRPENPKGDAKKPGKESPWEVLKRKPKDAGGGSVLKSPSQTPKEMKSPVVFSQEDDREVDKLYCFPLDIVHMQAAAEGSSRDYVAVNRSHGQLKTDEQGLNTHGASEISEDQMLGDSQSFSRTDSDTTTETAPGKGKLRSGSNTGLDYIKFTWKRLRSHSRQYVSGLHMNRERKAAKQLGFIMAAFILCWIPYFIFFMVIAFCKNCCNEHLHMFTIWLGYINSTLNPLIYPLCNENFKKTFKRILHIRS

CN1CCc2c(c3cc(Cl)ccc3n2CC(=O)c2ccc(F)cc2)C1 [Compound 1-37, 2-(8-chloro-2-methyl-3,4-dihydro-1H-pyrido[4,3-b]indol-5(2H)-yl)-1-(4-fluorophenyl)ethanone]
inhibition at 1 µM [1]: 97%
inhibition at 1 µM [2]: 73%
inhibition at 1 µM [3]: 87%
inhibition at 1 µM [4]: 83%
